Like-named read-outs stand apart in the source and are kept apart here.
Columns and labels:
Assay type in all cases: biochemical, rice (Oryza sativa var. Kinmaze)
[1] = biological target: T1, GST fusion W548L mutant ALS protein (Oryza sativa subsp. japonica, UniProt Q6K2E8, W548L); test: Herbicide sensitivity of ALS protein expressed in E. coli (crude enzyme solution), W548L; details: for RS ratio: W548L mutant vs wild type
T1 construct: an expression vector having the full-length wild type ALS cDNA incorporated into the Eco RI site of pGEX-2T; made in house; host or cells: E. coli JM109, pGEX 2T(ALS-W548L mutant); crude supernatant
Method: (§1) ALS activity resulting from the mutant ALS protein contained in the eluted fractions apportioned into each test tube for apportioning was measured as follows. A reaction solution to be used in a measurement reaction was prepared by mixing an eluted fraction to be measured with a solution comprising 20 mM sodium pyruvate, 0.5 mM TPP, 0.5 mM MgCl2, 10 μM FAD and 20 mM potassium phosphate buffer (pH 7.5). One ml of this reaction solution was used. After the eluted fraction to be measured was added, the measurement reaction was performed at 30° C. for 40 to 60 minutes. Then, the reaction was stopped by addition of 0.1 ml of 6N sulfuric acid (or 0.25 N sodium hydroxide).
(§2) After the reaction was stopped, the reaction solution was incubated at 60° C. for 10 minutes, thereby converting acetolactate contained in the reaction solution to acetoin.
(§3) Then, to quantify acetoin contained in the reaction solution, 1 ml of 0.5% (w/v) creatine and 1 ml of 5% (w/v) α-naphthol dissolved in 2.5 N sodium hydroxide was added to the reaction solution, followed by incubation at 37° C. for 10 minutes. Acetoin was then quantified by color comparison of the absorbance (at 525 nm) of the reaction solution, thereby evaluating ALS activity. In addition, since the reaction solution contained a small amount of sodium pyruvate, reaction time 0 was used as control.
(§4) E. coli transformed with pGEX-2T(ALS-wild) constructed in Example 3(5), E. coli transformed with pGEX-2T(ALS-W548L mutant) constructed in Example 5, E. coli transformed with pGEX-2T(ALS-S627I mutant) constructed in Example 5, E. coli transformed with pGEX-2T(ALS P171H mutant) constructed in Example 6, E. coli transformed with pGEX-2T(ALS R172S mutant) constructed in Example 6, E. coli transformed with pGEX-2T(ALS P171H, R172S mutant) constructed in Example 7, E. coli transformed with pGEX-2T(ALS-P171H, W548L mutant) constructed in Example 8, E. coli transformed with pGEX-2T(ALS-P171H, S627I mutant) constructed in Example 8, and E. coli transformed with pGEX-2T(ALS-P171H, W548L, S627I mutant) constructed in Example 9 were respectively shake-cultured (pre-culture) at 27° C. in 2 ml of LB liquid medium containing ampicillin. These types of E. coli were respectively cultured in 250 ml of LB liquid medium containing ampicillin using 1 ml of the pre-culture solution. After culturing overnight, 1 mM IPTG was added to the media, and then culturing was performed for a further 3 to 4 hours, so that the expression of GST fusion protein was induced. In addition, the cells were stored at −80° C. after washing.
(§5) Preparation and purification of ALS from E. coli were performed by the following method. First, the pellet of the transformant E. coli stored at −80° C. was suspended in ALS extraction buffer (potassium phosphate buffer (pH 7.5) containing 30% glycerol and 0.5 mM MgCl2). Specifically, 2.5 ml of the buffer was added to the pellet obtained from 50 ml of the culture solution. The suspension was subjected to ultrasonication (Heat Systems-Ultrasonics, Sonicator W-225R, micro chip, output control 8, interval of approximately 1 second, twice (40 seconds each)), and subjected to centrifugation at 15000×g, 4° C. for 20 minutes, thereby obtaining the supernatant as a crude enzyme solution.
(§6) Herbicide sensitivity of the wild type ALS protein and that of mutant ALS protein were examined using the 9 types of crude enzyme solutions obtained in Example 10. Herbicide sensitivity test was performed according to procedures almost the same as those in Example 2. However, in this example, reaction temperature was 37° C., reaction time was 30 minutes, and 10 mM valine was added to the reaction solution to inhibit ALS activity derived from E. coli. Further, three types of herbicides, bispyribac-sodium, pyrithiobac-sodium, and pyriminobac, were used as PC herbicides; chlorsulfuron was used as a sulfonylurea herbicide; and imazaquin was used as an imidazolinon herbicide. […]

[2] = biological target: T2, GST fusion R172S mutant ALS protein (Oryza sativa subsp. japonica, UniProt Q6K2E8, R172S); test: Herbicide sensitivity of ALS protein expressed in E. coli (crude enzyme solution), R172S; details: for RS ratio: R172S mutant vs wild type
T2 construct: an expression vector having the full-length wild type ALS cDNA incorporated into the Eco RI site of pGEX-2T; made in house; host or cells: E. coli JM109, pGEX-2T(ALS R172S mutant); crude supernatant
Method: as §1, §2, §3, §4, §5, §6

[3] = biological target: T3, GST fusion P171H/S627I mutant ALS protein (Oryza sativa subsp. japonica, UniProt Q6K2E8, P171H/S627I); test: Herbicide sensitivity of ALS protein expressed in E. coli (crude enzyme solution), P171H/S627I; details: for RS ratio: P171H/S627I mutant vs wild type; for Predicted RS ratio: product of RS ratios of the 1-point mutants
T3 construct: made in house; host or cells: E. coli, pGEX-2T(ALS-P171H, S627I mutant); crude supernatant
Method: as §1, §2, §3, §4, §5, §6

[4] = biological target: T4, GST fusion P171H mutant ALS protein (Oryza sativa subsp. japonica, UniProt Q6K2E8, P171H); test: Herbicide sensitivity of ALS protein expressed in E. coli (crude enzyme solution), P171H; details: for RS ratio: P171H mutant vs wild type
T4 construct: an expression vector having the full-length wild type ALS cDNA incorporated into the Eco RI site of pGEX-2T; made in house; host or cells: E. coli JM109, pGEX-2T(ALS P171H mutant); crude supernatant
Method: as §1, §2, §3, §4, §5, §6

[5] = biological target: T5, GST fusion S627I mutant ALS protein (Oryza sativa subsp. japonica, UniProt Q6K2E8, S627I); test: Herbicide sensitivity of ALS protein expressed in E. coli (crude enzyme solution), S627I; details: for RS ratio: S627I mutant vs wild type
T5 construct: an expression vector having the full-length wild type ALS cDNA incorporated into the Eco RI site of pGEX-2T; made in house; host or cells: E. coli JM109, pGEX 2T(ALS-S627I mutant); crude supernatant
Method: as §1, §2, §3, §4, §5, §6

[6] = biological target: T6, GST fusion wild type ALS protein (Oryza sativa subsp. japonica, UniProt Q6K2E8); test: Herbicide sensitivity of ALS protein expressed in E. coli (crude enzyme solution), wild type; details: 37° C., 30 minutes, 10 mM valine, read-out: I50
T6 construct: an expression vector having the full-length wild type ALS cDNA incorporated into the Eco RI site of pGEX-2T; made in house; host or cells: E. coli JM109, pGEX-2T(ALS-wild); crude supernatant
Method: as §1, §2
as §3, with “control. […]” for “control.”

[7] = biological target: T7, GST fusion P171H/R172S mutant ALS protein (Oryza sativa subsp. japonica, UniProt Q6K2E8, P171H/R172S); test: Herbicide sensitivity of ALS protein expressed in E. coli (crude enzyme solution), P171H/R172S; details: for RS ratio: P171H/R172S mutant vs wild type; for Predicted RS ratio: product of RS ratios of the 1-point mutants
T7 construct: made in house; host or cells: E. coli JM109, pGEX-2T(ALS P171H, R172S mutant); crude supernatant
Method: as §1, §2, §3, §4, §5, §6

[8] = biological target: T8, GST fusion P171H/W548L mutant ALS protein (Oryza sativa subsp. japonica, UniProt Q6K2E8, P171H/W548L); test: Herbicide sensitivity of ALS protein expressed in E. coli (crude enzyme solution), P171H/W548L; details: for RS ratio: P171H/W548L mutant vs wild type; for Predicted RS ratio: product of RS ratios of the 1-point mutants
T8 construct: made in house; host or cells: E. coli, pGEX-2T(ALS-P171H, W548L mutant); crude supernatant
Method: as §1, §2, §3, §4, §5, §6

T3 sequence (Q6K2E8 44-644 P171H/S627I): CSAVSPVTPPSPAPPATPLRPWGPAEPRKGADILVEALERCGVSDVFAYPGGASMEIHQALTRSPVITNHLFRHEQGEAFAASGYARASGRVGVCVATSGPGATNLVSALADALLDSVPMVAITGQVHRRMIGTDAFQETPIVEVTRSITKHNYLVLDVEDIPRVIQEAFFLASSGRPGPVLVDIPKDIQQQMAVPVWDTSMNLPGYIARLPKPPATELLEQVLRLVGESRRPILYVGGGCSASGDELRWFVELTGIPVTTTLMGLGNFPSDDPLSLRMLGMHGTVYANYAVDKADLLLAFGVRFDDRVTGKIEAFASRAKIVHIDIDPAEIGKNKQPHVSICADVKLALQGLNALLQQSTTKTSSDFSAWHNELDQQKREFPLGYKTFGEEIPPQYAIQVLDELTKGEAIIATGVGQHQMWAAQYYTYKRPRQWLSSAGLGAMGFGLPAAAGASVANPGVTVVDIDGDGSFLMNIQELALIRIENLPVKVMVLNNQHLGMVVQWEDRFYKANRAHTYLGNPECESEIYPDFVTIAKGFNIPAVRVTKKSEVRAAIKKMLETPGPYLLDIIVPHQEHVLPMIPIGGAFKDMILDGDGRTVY
T2 sequence (Q6K2E8 44-644 R172S): as the sequence (Q6K2E8 44-644 P171H/S627I) above, with H128P, R129S, I584S counted along it
T8 sequence (Q6K2E8 44-644 P171H/W548L): as the sequence (Q6K2E8 44-644 P171H/S627I) above, with W505L, I584S counted along it
T5 sequence (Q6K2E8 44-644 S627I): as the sequence (Q6K2E8 44-644 P171H/S627I) above, with H128P counted along it
T4 sequence (Q6K2E8 44-644 P171H): as the sequence (Q6K2E8 44-644 P171H/S627I) above, with I584S counted along it
T7 sequence (Q6K2E8 44-644 P171H/R172S): as the sequence (Q6K2E8 44-644 P171H/S627I) above, with R129S, I584S counted along it
T1 sequence (Q6K2E8 44-644 W548L): as the sequence (Q6K2E8 44-644 P171H/S627I) above, with H128P, W505L, I584S counted along it
T6 sequence (Q6K2E8 44-644): as the sequence (Q6K2E8 44-644 P171H/S627I) above, with H128P, I584S counted along it

CON=C(C)c1cccc(Oc2nc(OC)cc(OC)n2)c1C(=O)O [pyriminobac]
RS ratio [1]: 4500 | IC50 ([1]; W548L mutant, 37° C., 30 minutes, 10 mM valine, read-out: I50): 36000 nM | RS ratio [2]: 1.2 | IC50 ([2]; R172S mutant, 37° C., 30 minutes, 10 mM valine, read-out: I50): 9.2 nM | RS ratio/ predicted RS ratio ([3]; P171H/S627I mutant): >0.93 | RS ratio [3]: >13000 | inhibition % at the highest concentration among the concentrations tested ([3]; P171H/S627I mutant, in 100 μM): 21% | Predicted RS ratio ([3]; P171H/S627I mutant): 14000 | RS ratio [4]: 5 | IC50 ([4]; P171H mutant, 37° C., 30 minutes, 10 mM valine, read-out: I50): 40 nM | RS ratio [5]: 2800 | IC50 ([5]; S627I mutant, 37° C., 30 minutes, 10 mM valine, read-out: I50): 22000 nM | IC50 [6]: 8 nM | RS ratio/ predicted RS ratio ([7]; P171H/R172S mutant): 0.85 | RS ratio [7]: 5.1 | IC50 ([7]; P171H/R172S mutant, 37° C., 30 minutes, 10 mM valine, read-out: I50): 41 nM | Predicted RS ratio ([7]; P171H/R172S mutant): 6 | RS ratio/ predicted RS ratio ([8]; P171H/W548L mutant): >0.57 | RS ratio [8]: >13000 | inhibition % at the highest concentration among the concentrations tested ([8]; P171H/W548L mutant, in 100 μM): 11% | Predicted RS ratio ([8]; P171H/W548L mutant): 23000

COc1cc(OC)nc(Sc2cccc(Cl)c2C(=O)O)n1 [pyrithiobac-sodium]
RS ratio [1]: >9100 | inhibition at 100 µM ([1]; read-out: inhibition % at the highest concentration among the concentrations tested, W548L mutant, in 100 μM): 41% | IC50 [2]: 11 nM | RS ratio [2]: 1 | IC50 [3]: 9400 nM | RS ratio/ predicted RS ratio ([3]; P171H/S627I mutant): 1.3 | RS ratio [3]: 850 | Predicted RS ratio ([3]; P171H/S627I mutant): 680 | IC50 [4]: 37 nM | RS ratio [4]: 3.4 | IC50 [5]: 2200 nM | RS ratio [5]: 200 | IC50 [7]: 140 nM | RS ratio/ predicted RS ratio ([7]; P171H/R172S mutant): 3.8 | RS ratio [7]: 13 | Predicted RS ratio ([7]; P171H/R172S mutant): 3.4 | RS ratio [8]: >9100 | Predicted RS ratio ([8]; P171H/W548L mutant): >31000 | inhibition at 100 µM ([8]; read-out: inhibition % at the highest concentration among the concentrations tested, P171H/W548L mutant, in 100 μM): 20%

Reference: US8030547B2, “Gene coding for acetolactate synthase” (priority 2002, dated 2011)
